In the NIST ThermoML archive (doi:10.1021/je800889y):

Assay: excess molar enthalpy (molar enthalpy of mixing); xn = mol fraction of the nth substance listed
Conditions: 101.3 kPa, Liquid, Flow calorimetry

CCOC(=O)CC(C)=O [ethyl 3-oxobutanoate] + CCC(C)O
excess molar enthalpy [kcal/mol]
Conditions	298.15 K	313.15 K	328.15 K	338.15 K	348.15 K
x1 = 0.1002	0.234	0.269	0.287	0.293	0.294
x1 = 0.1997	–	0.421	0.463	0.472	0.474
x1 = 0.2008	0.363	–	–	–	–
x1 = 0.2998	–	0.517	0.568	0.583	0.584
x1 = 0.3009	0.439	–	–	–	–
x1 = 0.3999	–	0.569	0.623	0.637	0.639
x1 = 0.4011	0.483	–	–	–	–
x1 = 0.45	–	0.583	0.631	0.646	0.647
x1 = 0.4512	0.493	–	–	–	–
x1 = 0.5004	–	0.583	0.629	0.641	0.644
x1 = 0.5017	0.496	–	–	–	–
x1 = 0.5499	–	0.576	0.616	0.624	0.626
x1 = 0.5512	0.492	–	–	–	–
x1 = 0.5995	–	0.555	0.592	0.598	0.6
x1 = 0.6009	0.48	–	–	–	–
x1 = 0.6493	–	0.527	0.557	0.558	0.56
x1 = 0.6507	0.46	–	–	–	–
x1 = 0.7007	0.43	0.486	0.507	0.508	0.508
x1 = 0.8005	0.338	0.37	0.38	0.381	0.383
x1 = 0.8999	0.192	0.208	0.211	0.212	0.212

CCOC(=O)CC(C)=O [ethyl 3-oxobutanoate] + CCOC(C)=O
excess molar enthalpy [kcal/mol]
Conditions	298.15 K	313.15 K	328.15 K	338.15 K	348.15 K
x1 = 0.1005	0.00598	0.00598	0.00502	0.00454	0.00406
x1 = 0.1995	0.0098	0.01	0.00837	0.00789	0.00693
x1 = 0.2996	0.0124	0.0127	0.0105	0.0098	0.0086
x1 = 0.3495	0.0129	0.0136	0.0112	0.0105	0.00932
x1 = 0.3995	0.0134	0.0141	0.0115	0.011	0.0098
x1 = 0.4496	0.0136	0.0146	0.0117	0.0112	0.01
x1 = 0.4998	0.0134	0.0146	0.0115	0.011	0.01
x1 = 0.55	0.0131	0.0143	0.0112	0.0108	0.0098
x1 = 0.6001	0.0124	0.0139	0.0105	0.0103	0.00932
x1 = 0.6502	0.0117	0.0134	0.0098	0.0098	0.00908
x1 = 0.7001	0.011	0.0124	0.00884	0.00884	0.00837
x1 = 0.7994	0.00837	0.01	0.00645	0.00693	0.00645
x1 = 0.9004	0.00454	0.00669	0.0043	0.00406	0.00406

CCOC(=O)CC(C)=O [ethyl 3-oxobutanoate] + O
excess molar enthalpy [kcal/mol]
Conditions	298.15 K	313.15 K	328.15 K	338.15 K	348.15 K
x1 = 0.1502	0.0418	0.066	0.0923	0.113	0.133
x1 = 0.2994	0.102	0.143	0.187	0.222	0.26
x1 = 0.4491	0.163	0.22	0.283	0.334	0.386
x1 = 0.6014	0.221	0.294	0.375	0.436	0.462
x1 = 0.6499	–	–	–	0.427	0.452
x1 = 0.7001	0.258	0.335	0.379	0.406	0.427
x1 = 0.7514	0.27	0.315	0.35	0.374	0.386
x1 = 0.797	–	–	–	0.331	0.337
x1 = 0.8474	0.208	0.239	0.257	–	–
x1 = 0.9034	0.143	0.166	0.176	0.186	0.188
x1 = 0.9496	0.0765	0.092	0.0932	–	–

CCOC(=O)CC(C)=O [ethyl 3-oxobutanoate] + CCCCCO
excess molar enthalpy [kcal/mol]
Conditions	298.15 K	313.15 K	328.15 K	338.15 K	348.15 K
x1 = 0.0998	0.218	0.251	0.269	0.282	0.283
x1 = 0.1996	0.331	0.399	0.443	0.46	0.461
x1 = 0.3006	0.409	0.49	0.55	0.571	0.572
x1 = 0.3505	0.432	0.521	0.587	0.606	0.606
x1 = 0.4001	0.449	0.541	0.608	0.629	0.632
x1 = 0.4504	0.46	0.554	0.621	0.641	0.644
x1 = 0.5003	0.465	0.557	0.622	0.641	0.644
x1 = 0.5498	0.463	0.551	0.612	0.63	0.632
x1 = 0.6	0.455	0.54	0.596	0.607	0.61
x1 = 0.6497	0.44	0.517	0.563	0.573	0.575
x1 = 0.7002	0.417	0.483	0.521	0.526	0.527
x1 = 0.7995	0.342	0.381	0.398	0.399	0.399
x1 = 0.9004	0.203	0.215	0.222	0.222	0.223

CCOC(=O)CC(C)=O [ethyl 3-oxobutanoate] + CCCCO
excess molar enthalpy [kcal/mol]
Conditions	298.15 K	313.15 K	328.15 K	338.15 K	348.15 K
x1 = 0.1003	0.218	0.239	0.267	0.271	0.277
x1 = 0.2002	0.337	0.374	0.433	0.445	0.454
x1 = 0.3	0.408	0.463	0.539	0.553	0.562
x1 = 0.3502	0.433	0.494	0.57	0.586	0.596
x1 = 0.3999	0.449	0.515	0.591	0.605	0.615
x1 = 0.45	0.459	0.531	0.6	0.615	0.623
x1 = 0.5005	0.462	0.532	0.599	0.613	0.619
x1 = 0.5501	0.459	0.524	0.589	0.6	0.605
x1 = 0.5999	0.449	0.507	0.567	0.577	0.578
x1 = 0.6499	0.431	0.482	0.537	0.543	0.543
x1 = 0.7	0.403	0.445	0.494	0.497	0.498
x1 = 0.8005	0.321	0.338	0.371	0.372	0.372
x1 = 0.9007	0.183	0.191	0.201	0.201	0.202
